# In patent US5840859A, “(Aminostyryl)pyridinium compounds for radiolabelling cell membranes” (Research Corporation Technologies, Inc., priority 1996, dated 1998):
# Assays:
# [1] = test system: inflammatory lesions / abscesses; details: cited from earlier work
# [2] = test system: mixed leukocytes; experiment: Mixed leukocyte labeling yield; format: cell-based, canine; details: for Mixed leukocyte labeling yield: 125I labeled, average, 10-30 μCi, 250-325 Ci/mmol
# Procedure: Labeling of mixed leukocytes (harvested from 20 mL canine blood) with 4a-d was performed using five different procedures: 1) labeling in Diluent C (a commercial non-ionic cell labeling media developed by Zynaxis Co. that is not approved for human use) after two saline washes of the cell pellet; 2) labeling in saline after two saline washes of the cell pellet; 3) labeling in saline with no saline washes of the cell pellet; 4 and 5) labeling in ether 10% or 100% platelet poor plasma (PPP).
# Unwashed mixed leukocytes in 1.5 mL 10% PPP in saline were also tested. […]
# This was evaporated to dryness under vacuum in a speed vac and reconstituted into 30 ul ethanol. Forty milliliters of canine blood was drawn into a 60 mL syringe containing 6.5 mL acetate-citrate-dextrose solution. To this was added 5.5 mL 2% methyl cellulose in saline. The contents of the syringe were gently mixed by several inversions of the syringe and the syringe placed vertically, needle end up, for 45 minutes to allow the red blood cells to settle. The plasma was drawn off and placed into a 50 mL Falcon tube. The tube was centrifuged at 1100 rpm for 15 minutes to pellet the leukocytes. The plasma was removed and the cells resuspended in 2 mL saline. In a 1 mL plastic microcentrifuge was placed 0.5 mL saline. […] The cells were then underlayered with 7.5 mL of platelet poor plasma and centrifuged at 1600 rpm for seven minutes to pellet the cells. The supernatant was removed, the cells resuspended in 10 mL saline, and transferred to a new tube. The supernatant, cells, and labeling tube were counted for radioactivity. The cells were centrifuged again at 1600 rpm for 7 minutes, the supernatant removed, and the cells resuspended.
# A sample of canine blood (20 mL) was drawn into a 60 mL syringe containing 3 mL acetate-citrate-dextrose (ACD) solution. To this was added 3 mL 2% methyl cellulose in saline. The contents of the syringe were gently mixed by several inversions, and the syringe was then placed vertically, needle end up, for 45 min to allow the red blood cells to settle. The plasma was drawn off and transferred to a 50 mL Falcon tube. The tube was centrifuged at 1100 rpm for 15 min to pellet the leukocytes. The plasma was removed and the cells resuspended in 10 mL saline. The tube was centrifuged at 1600 rpm for 7 min, the supernatant removed, and the cells resuspended in 10 mL saline and recentrifuged at 1600 rpm for 7 min. The supernatant was then removed and the cells resuspended in 2 mL Diluent C. Into a 1 mL plastic microcentrifuge tube was placed 0.5 mL Diluent C. […] The indium complex in Diluent C was immediately added to the leukocytes and the cells were placed vertically on a Nutator rocking apparatus and rocked gently for 30 min at room temperature. The cells were then underlayered with 5 mL of platelet poor plasma and centrifuged at 1600 rpm for 7 min to pellet the cells. The supernatant was removed, the cells resuspended in 10 mL saline, and transferred to a new tube. The supernatant, cells, and labeling tube were counted for radioactivity. The cells were centrifuged again at 1600 rpm for 7 min, the supernatant removed, and the cells resuspended.
# [3] = labeled leukocytes, McAfee et al.
compound,measurement,setting,value
C/C(=N\[O-])[C@@H](C)[N-]CC(C)(C)C[N-][C@H](C)/C(C)=N/O.[O]=[99Tc+3] (racemic) [^99m Tc-HMPAO],stability compared with the 111In radiopharmaceuticals,[1]; in vitro and in vivo,less stable both in vitro and in vivo
same,nonspecific biodistribution,"[1]; labeled leukocytes, in vivo","diffuse abdominal radioactivity, gall bladder uptake"
same,target to background ratios compared with cells labeled with 111In-oxine,[1]; [3],lower target to background ratios
same,uptake in abscesses compared with cells labeled with 111In-oxine,[1]; [3],lower absolute uptake in abscesses
same,"renal excretion of unidentified polar species containing 99mTc, earliest time",[1]; printed as early as three hours post injection,three hours post injection
CCCCCCCCN(CCCCCCCC)c1ccc(/C=C/c2cc[n+](C/C=C/[125I])cc2)cc1 [Compound 4c],Mixed leukocyte labeling yield,[2]; Diluent C,52%
same,Mixed leukocyte labeling yield,"[2]; saline, 2 washes of pellet",32%
same,Mixed leukocyte labeling yield,"[2]; saline, no washes of pellet",6%
same,Leukocyte labeling (in words),[2]; five labeling procedures compared,only labeled leukocytes in useful yields using Diluent C
"indium-111 complex of N-[methyl(2-(Di-4-ASP-propylthiourea)ethyl)carbamide]-trans-1,2-diaminocyclohexane-N,N',N'-triacetic acid [^111 In-19a]","Mixed leukocyte labeling yield, 111In complexes",[2]; Diluent C,4%
"indium-111 complex of N-[methyl(2-(Di-6-ASP-acetamido)ethyl)carbamide]-trans-1,2-diaminocyclohexane-N,N',N'-triacetic acid [^111 In-18]","Mixed leukocyte labeling yield, 111In complexes",[2]; Diluent C,21%
"indium-111 complex of N-[methyl(2-(Di-10-ASP-propylthiourea)ethyl)carbamide]-trans-1,2-diaminocyclohexane-N,N',N'-triacetic acid [^111 In-19b]","Mixed leukocyte labeling yield, 111In complexes",[2]; Diluent C,84%
same,111In bound to the cells (labeling yield),"[2]; Example 15, Diluent C, 44.4 μCi, 30 min, room temperature",84%
same,111In bound to the cells,"[2]; Example 15, of 44.4 μCi added",37.4 μCi
